Laboratory results as given in ChEMBL document CHEMBL1201862, “PubChem BioAssay data set” (2004).
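These data come from cells grown in 96-well plates and exposed to compound for 48 hours at five concentrations. The concentration for 50% growth inhibition is given as GI50.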 Calls of active or inactive are those of the source. Cut-off read from the data, not from the text of the source: active = GI50 up to about 1.1 µM and inactive = higher.

Assays:
Test in all cases: NCI-60 cell line screen, 48 h
SF-539 = tested on: SF-539
A549 = tested on: A549
MOLT-4 = tested on: MOLT-4
OVCAR-4 = tested on: OVCAR-4
UO-31 = tested on: UO-31
U-251 = tested on: U-251
SF-268 = tested on: SF-268
ACHN = tested on: ACHN
IGROV-1 = tested on: IGROV-1
UACC-257 = tested on: UACC-257
SN12C = tested on: SN12C
NCI-H23 = tested on: NCI-H23
KM12 = tested on: KM12
HT-29 = tested on: HT-29
SNB-19 = tested on: SNB-19
OVCAR-8 = tested on: OVCAR-8
HCC 2998 = tested on: HCC 2998

Row | SMILES | GI50 (SF-539) | GI50 (A549) | GI50 (MOLT-4) | GI50 (OVCAR-4) | GI50 (UO-31) | GI50 (U-251) | GI50 (SF-268) | GI50 (ACHN) | GI50 (IGROV-1) | GI50 (UACC-257) | GI50 (SN12C) | GI50 (NCI-H23) | GI50 (KM12) | GI50 (HT-29) | GI50 (SNB-19) | GI50 (OVCAR-8) | GI50 (HCC 2998)
1 | NC1=NS(=O)(=O)Nc2nc(-c3ccccc3)c(-c3ccccc3)nc21 | > 100 µM (inactive) | > 100 µM (inactive) | > 100 µM (inactive) | > 100 µM (inactive) | > 100 µM (inactive) | > 100 µM (inactive) | > 100 µM (inactive) | > 100 µM (inactive) | > 100 µM (inactive) | > 100 µM (inactive) | > 100 µM (inactive) | > 100 µM (inactive) | > 100 µM (inactive) | > 100 µM (inactive) | > 100 µM (inactive) | > 100 µM (inactive) | > 100 µM (inactive)
2 | CC1NS(=O)(=O)N(C)C1=O (centres undefined) | > 100 µM (inactive) | > 100 µM (inactive) | > 100 µM (inactive) | > 100 µM (inactive) |  | > 100 µM (inactive) | > 100 µM (inactive) | > 100 µM (inactive) | > 100 µM (inactive) | > 100 µM (inactive) | > 100 µM (inactive) | > 100 µM (inactive) | > 100 µM (inactive) |  |  | > 100 µM (inactive) | > 100 µM (inactive)
3 | COC(=O)/C(C#N)=C1\CCc2ccccc21 | > 100 µM (inactive) | > 100 µM (inactive) | > 100 µM (inactive) | > 100 µM (inactive) | > 100 µM (inactive) |  | > 100 µM (inactive) | > 100 µM (inactive) | > 100 µM (inactive) | > 100 µM (inactive) | > 100 µM (inactive) | > 100 µM (inactive) | > 100 µM (inactive) | > 100 µM (inactive) | > 100 µM (inactive) | > 100 µM (inactive) | > 100 µM (inactive)
4 | COc1cc(CNc2cnc3cc(N)ccc3n2)cc(OC)c1OC | 19.4 µM (inactive) | 44.6 µM (inactive) | 15.9 µM (inactive) | > 100 µM (inactive) | 36.8 µM (inactive) | 29.2 µM (inactive) | > 100 µM (inactive) | 66.1 µM (inactive) | 39.3 µM (inactive) | > 100 µM (inactive) | 54.5 µM (inactive) | 28.5 µM (inactive) | 66.4 µM (inactive) | 16.9 µM (inactive) | 34.8 µM (inactive) | 37.4 µM (inactive) | 35.1 µM (inactive)
5 | CCOC(=O)CN.CCOC(=O)Nc1ccc(S(=O)(=O)OC)cc1.CCOC(=O)Nc1ccc(S(=O)(=O)OC)cc1 | > 50 µM (inactive) | > 50 µM (inactive) | > 50 µM (inactive) | > 50 µM (inactive) | > 50 µM (inactive) | 9.25 µM (inactive) | > 50 µM (inactive) | > 50 µM (inactive) | > 50 µM (inactive) | > 50 µM (inactive) | > 50 µM (inactive) | > 50 µM (inactive) | > 50 µM (inactive) | > 50 µM (inactive) | > 50 µM (inactive) | > 50 µM (inactive) | > 50 µM (inactive)
6 | Cc1ccc(C2(O)CC(c3ccc([N+](=O)[O-])o3)=NN2C(=O)COc2ccccc2Cl)cc1 (centres undefined) | 17.4 µM (inactive) | 18.1 µM (inactive) | 3.91 µM (inactive) | 17.3 µM (inactive) | 12.5 µM (inactive) | 9.68 µM (inactive) | 10.5 µM (inactive) | 5.08 µM (inactive) | 15.9 µM (inactive) | 8.18 µM (inactive) | 8.22 µM (inactive) | 12.4 µM (inactive) | 8.83 µM (inactive) | 4.21 µM (inactive) | 14.8 µM (inactive) | 11.2 µM (inactive) | 10.4 µM (inactive)
7 | Cn1ccc(=NS(=O)(=O)c2ccccc2)cc1 | > 100 µM (inactive) | > 100 µM (inactive) | > 100 µM (inactive) |  | > 100 µM (inactive) | > 100 µM (inactive) | > 100 µM (inactive) | > 100 µM (inactive) | > 100 µM (inactive) | > 100 µM (inactive) |  | > 100 µM (inactive) | > 100 µM (inactive) | > 100 µM (inactive) | > 100 µM (inactive) | > 100 µM (inactive) | > 100 µM (inactive)
8 | Nc1nc(O)c2c(ncn2CCO)n1 | > 100 µM (inactive) | > 100 µM (inactive) | > 100 µM (inactive) |  | > 100 µM (inactive) | > 100 µM (inactive) | > 100 µM (inactive) | > 100 µM (inactive) |  | > 100 µM (inactive) | > 100 µM (inactive) | > 100 µM (inactive) |  | > 100 µM (inactive) | > 100 µM (inactive) | > 100 µM (inactive) | > 100 µM (inactive)
9 | O=c1c2cccnc2ncn1CCN1CCCCC1 | > 100 µM (inactive) | > 100 µM (inactive) | > 100 µM (inactive) | > 100 µM (inactive) | > 100 µM (inactive) | > 100 µM (inactive) | > 100 µM (inactive) | > 100 µM (inactive) | > 100 µM (inactive) |  | > 100 µM (inactive) | > 100 µM (inactive) | > 100 µM (inactive) | > 100 µM (inactive) | > 100 µM (inactive) | > 100 µM (inactive) | > 100 µM (inactive)
10 | CC(C(=O)c1ccc(O)cc1)C1(O)C(=O)Nc2c(Cl)cc(Cl)cc21 (centres undefined) | 51.2 µM (inactive) | > 100 µM (inactive) | 28.9 µM (inactive) | 21.7 µM (inactive) | > 56.6 µM (inactive) | > 78 µM (inactive) | > 76.9 µM (inactive) | 16.6 µM (inactive) | > 100 µM (inactive) | 17.5 µM (inactive) | 44.9 µM (inactive) | 59.8 µM (inactive) | > 87.3 µM (inactive) | > 73.8 µM (inactive) | > 77.6 µM (inactive) | 46.3 µM (inactive) | > 100 µM (inactive)
11 | C#CCOCn1cnc2c(Sc3c([N+](=O)[O-])ncn3C)ncnc21 |  | > 100 µM (inactive) |  | 87.5 µM (inactive) | 91.8 µM (inactive) | > 100 µM (inactive) | > 100 µM (inactive) | > 100 µM (inactive) | > 100 µM (inactive) | > 100 µM (inactive) | > 100 µM (inactive) | > 100 µM (inactive) | > 100 µM (inactive) | > 100 µM (inactive) | > 100 µM (inactive) | > 100 µM (inactive) | > 100 µM (inactive)
12 | COC(=O)C(=C\Sc1ccccc1)/C=C/C(=O)OC(C)(C)C | 13.6 µM (inactive) | 18.3 µM (inactive) | 2.84 µM (inactive) | 15 µM (inactive) | 16 µM (inactive) | 14.5 µM (inactive) | 14.9 µM (inactive) | 7.23 µM (inactive) | 13.1 µM (inactive) | 13.5 µM (inactive) |  | 17.1 µM (inactive) | 11.4 µM (inactive) | 16.5 µM (inactive) | 4.08 µM (inactive) | 15.3 µM (inactive) | 10.1 µM (inactive)
13 | Cc1cc(NCCCCCCCCNc2cc(C)nc3cc(N)ccc23)c2ccc(N)cc2n1 | 17 µM (inactive) | 18.3 µM (inactive) | > 100 µM (inactive) | 17.3 µM (inactive) | > 100 µM (inactive) | 8.57 µM (inactive) | 26.2 µM (inactive) | 37.7 µM (inactive) |  | 12.7 µM (inactive) | 15.8 µM (inactive) | 14.3 µM (inactive) | 12.5 µM (inactive) | 21.8 µM (inactive) | 14.1 µM (inactive) | 17.2 µM (inactive) | 15.1 µM (inactive)
14 | CC12OC3CC(O1)C1(C=O)C4CCC5(C)C(c6ccc(=O)oc6)CCC5(O)C4CCC1(C3)O2 (centres undefined) | 0.102 µM (active) | 0.0611 µM (active) | 0.0344 µM (active) | 0.155 µM (active) | 0.304 µM (active) | 0.293 µM (active) | 0.103 µM (active) | 0.0476 µM (active) | 0.341 µM (active) | 0.234 µM (active) | 0.0621 µM (active) |  | 0.379 µM (active) | 0.385 µM (active) | 0.573 µM (active) | 0.256 µM (active) | 0.56 µM (active)
15 | Cc1ccc(O)c(C(=O)CCCC(=O)c2cc(C)ccc2O)c1 | > 100 µM (inactive) |  | > 100 µM (inactive) | 74.5 µM (inactive) | 44.9 µM (inactive) | 52.4 µM (inactive) | > 100 µM (inactive) | > 100 µM (inactive) | > 100 µM (inactive) | > 100 µM (inactive) | > 100 µM (inactive) | > 100 µM (inactive) | > 100 µM (inactive) | > 100 µM (inactive) | 46.1 µM (inactive) | > 100 µM (inactive) | 0.152 µM (active)
16 | CCCCCCCCCC1C(C)c2c([nH]c3ccccc23)C2C(=O)N(c3ccccc3)C(=O)C21 (centres undefined) | 19.7 µM (inactive) | 17.7 µM (inactive) | 2.54 µM (inactive) | 5.9 µM (inactive) | 13 µM (inactive) | 13.8 µM (inactive) |  | 10.8 µM (inactive) | 18.8 µM (inactive) | 15.8 µM (inactive) |  | 3.72 µM (inactive) | 4.79 µM (inactive) | 10.8 µM (inactive) |  | 7.78 µM (inactive) | 12.9 µM (inactive)
17 | N#Cc1c2nc3ccccc3nc2n2ccccc12 | > 100 µM (inactive) | > 100 µM (inactive) | > 100 µM (inactive) | > 100 µM (inactive) | > 100 µM (inactive) | > 100 µM (inactive) | > 100 µM (inactive) | > 100 µM (inactive) | > 100 µM (inactive) | > 100 µM (inactive) | > 100 µM (inactive) | > 100 µM (inactive) | > 100 µM (inactive) |  | > 100 µM (inactive) | > 100 µM (inactive) | > 100 µM (inactive)
